Assay results: patent publication US5387585A, “Imidazodiazepine derivatives” (Hoffmann-La Roche Inc., priority 1991, dated 1995)

Tests used:
[1] = tested on: female mice (Charles-River); assay: Reversal of the action of meclonazepam in the rotating rod test; format: in vivo; details: iv, 0.5 h; mouse, i.v., after 5 mg/kg meclonazepam i.p.; 50% of animals remain on rod; read-out: Anti-meclonazepam, rotating rod, mouse, ID50
Experimental: Reversal of the action of meclonazepam in the rotating rod test
Test description: female mice (Charles-River, Pans) weighing 19-21 g are used, They have free access to feed and drinking water up to 1 h; before the beginning of the test. They are brought into the test laboratory at lent 30 min. before the test.
In the rotating rod test the animals are placed on a horizontally arranged, smooth metal rod having a diameter of 3 cm, which is rotated at 2 revolutions per min. Initially, the animals are given the opportunity of familiarizing themselves with the test situation for 30sec. Subsequently, those animals which succeed in remaining on the rod for at least 1 min. are selected.
Determination of the reversal of the activity of meclonazepam: 5 mg/kg of meclonazepam are administered intraperitonally to the animals as a suspension in a 0.3% aqueous Tween 80 solution. This causes an inability to stay on the rotating red, which lasts for several hours. 20 min. later, a fine suspension of the test preparation in a 0.3% Tween 80 solution in water is administered intravenously. 30 min. later, it is determined whether the animals can stay on the rod for at least I min. The dosage at which 50% of the animals are capable of remaining on the rod is determined (ID50).

[2] = tested on: rat; assay: Conflict test in the rat; format: in vivo; details: po, 30 minutes before the 1-hour conflict test, read-out: Conflict test, rat, FSD (first significant anxiolytically-active dosage)
Experimental: The test apparatus is a one-key Skinner box having a feed pellet dispenser. At least 8 hungry rats are usually employed per substance and dosage for the testing of potential anxiolytics. Rats which respond to the known anxiolytic chlorodiazepoxide are used. The test substances, which are dissolved or suspended in a mixture of 10 ml of distilled water and 2 drops of Tween 80, are administered to the test animals by means of a probang 30 minutes before the 1-hour conflict test. During the test, in which each press of the key for a feed pellet is combined with a foot shock (conflict), the number key activations is registered. Each test animal serves as its own control in that it is pre-treated once with test substance and once with sodium chloride solution.
The first significant anxiolytically-active dosage (FSD) is determined with the Wilcoxon test (comparison of pairs) by comparing directly the number of key activations in the main test (feed pellet +foot shock after pre-treatment with test substance) with the number of key activations in the control test (feed pellet +foot shock after pre-treatment with sodium chloride solution).

[3] = target: central benzodiazepine receptors; assay: 3H-Flumazenil binding test in vitro; details: inhibition of specific binding of tritiated flumazenil, rat cortex
Experimental: 3H-Flumazenil binding test
The affinity of compounds of formula I to the central benzodiazepine receptors was established in vitro according to the methods described in Nature 294, 763-765 (1981) and J. Neurochemistry 37, 714-722 (1981). According to these methods, the inhibition of the binding of tritiated flumazenil to the specific benzodiazepine receptors in the cortex of rats by the respective test substances is determined. The IC50 ("50% inhibiting concentration") denotes that concentration of the respective test substance which brings about a 50 percent inhibition of the specific binding of tritiated flumazenil to the specific benzodiazepine receptors in the cortex of rats.

[4] = tested on: Male DBA 2J mice; assay: Audiogenic seizures (anticonvulsive test); format: in vivo; details: po, 0.5 h; mouse, p.o., prevention of tonic convulsions in 50% of animals, 30 minutes before test; read-out: Audiogenic seizure, mouse, ED50
Experimental: The anticonvulsive properties of the compounds of formula I can be determined, for example, in the test described hereinafter.
The test apparatus is a soundproofed one-key box having a built-in sound source. Male DBA 2J mice aged 21 days and weighing 7-11 g are employed for the testing of the substances. These mice are an animal model for epilepsy in which sonic irradiation causes seizures. The test substances are employed as aqueous suspensions of different concentration and are administered to the experimental animals orally or intraperitonally in an amount of 10 ml/kg 30 minutes before the beginning of the test. The test animals are exposed for 60 seconds to a sonic irradiation of 110 dB/14 KHz. This produces in untreated animals symptoms such as racing around, cronic seizures and tonic convulsions. The ED50 value, that is, that dosage of a test substance which in :50% of the test animals prevents the tonic convulsions caused by the sonic irradiation, is determined.

| SMILES | ED50 [1] | minimal effective dose [2] | IC50 [3] | ED50 [4] |
| --- | --- | --- | --- | --- |
| c1ccc2c(c1)-c1ncnn1Cc1c(-c3nc(C4CC4)no3)ncn1-2 [A, 10-(3-cyclopropyl-1,2,4-oxadiazol-5-yl)-9H-imidazo[1,5-a][1,2,4]triazolo[1,5-d][1,4]benzodiazepine] | 1.5 mg/kg | 0.3 mg/kg | 1.3 nM |  |
| Fc1ccc2c(c1)-c1ncnn1Cc1c(-c3nc(C4CC4)no3)ncn1-2 [B, 10-(3-cyclopropyl-1,2,4-oxadiazol-5-yl)-3-fluoro-9H-imidazo[1,5-a][1,2,4]triazolo[1,5-d][1,4]benzodiazepine] | 0.8 mg/kg | 0.1 mg/kg | 2.5 nM | 0.27 mg/kg |
| Fc1ccc2c(c1)-c1ncnn1Cc1c(-c3noc(C4CC4)n3)ncn1-2 [C, 10-(5-cyclopropyl-1,2,4-oxadiazol-3-yl)-3-fluoro-9H-imidazo[1,5-a][1,2,4]triazolo[1,5-d][1,4]benzodiazepine] | 0.17 mg/kg | 0.003 mg/kg | 0.91 nM | 0.015 mg/kg |
| c1ccc2c(c1)-c1ncnn1Cc1c(-c3noc(C4CC4)n3)ncn1-2 [D, 10-(5-cyclopropyl-1,2,4-oxadiazol-3-yl)-9H-imidazo[1,5-a][1,2,4]triazolo[1,5-d][1,4]benzodiazepine] | 0.08 mg/kg | 3 mg/kg | 0.33 nM | 4.2 mg/kg |
| Clc1ccc2c(c1)-c1nccn1Cc1c(-c3noc(C4CC4)n3)ncn1-2 [E, 3-chloro-10-(5-cyclopropyl-1,2,4-oxadiazol-3-yl)-9H-diimidazo[1,5-a:1',2'-d][1,4]benzodiazepine] |  | 1 mg/kg | 2.9 nM | 0.21 mg/kg |
| CCOCc1nc(-c2ncn3c2Cn2ncnc2-c2cc(F)ccc2-3)no1 [F, 10-[5-(ethoxymethyl)-1,2,4-oxadiazol-3-yl]-3-fluoro-9H-imidazo[1,5-a][1,2,4]triazolo[1,5-d][1,4]benzo-diazepine] | 1.8 mg/kg | 0.1 mg/kg | 3 nM | 0.11 mg/kg |
| Clc1cccc2c1-c1ncnn1Cc1c(-c3noc(C4CC4)n3)ncn1-2 [G, 4-Chloro-10-(5-cyclopropyl-1,2,4-oxadiazol-3-yl)-9H-imidazo[1,5-a][1,2,4]triazolo[1,5-d][1,4]benzodiazepine] | 0.0047 mg/kg |  | 0.6 nM |  |
| Clc1cccc2c1-c1nccn1Cc1c(-c3nc(C4CC4)no3)ncn1-2 [H, 4-chloro-10-(3-cyclopropyl-1,2,4-oxadiazol-5-yl)-9H-diimidazo[1,5-a:1',2'-d][1,4]benzodiazepine] | 0.1 mg/kg | 0.001 mg/kg | 0.29 nM | 0.0039 mg/kg |
| Clc1cccc2c1-c1nccn1Cc1c(-c3noc(C4CC4)n3)ncn1-2 [I, 4-chloro-10-(5-cyclopropyl-1,2,4-oxadiazol-3-yl)-9H-diimidazo[1,5-a:1',2'-d][1,4]benzodiazepine] |  | 0.03 mg/kg | 0.3 nM | 0.00011 mg/kg |
